Reference: ChEMBL document CHEMBL5113441, “Exploration of 4-(1H-indol-3-yl)cyclohex-3-en-1-amine analogues as HDAC inhibitors: Design, synthesis, biological evaluation and modelling studies” (Bioorg Med Chem Lett, 2022)
Activity calls are given as the source filed them. No cut-off for these calls is given here.

Tests used:
[1] = test system: HCT-116; assay: Antiproliferative activity against human HCT-116 cells measured after 72 hrs; assay type: functional, cell-based; settings: HCT-116, 72 h
[2] = test system: MCF7; assay: Antiproliferative activity against human MCF7 cells measured after 72 hrs; assay type: functional, cell-based; settings: MCF7, 72 h
[3] = test system: SW480; assay: Antiproliferative activity against human SW480 cells measured after 72 hrs; assay type: functional, cell-based; settings: SW480, 72 h
[4] = test system: A549; assay: Antiproliferative activity against human A549 cells measured after 72 hrs; assay type: functional, cell-based; settings: A549, 72 h
[5] = test system: HCT-116; assay: Induction of apoptosis in human HCT-116 cells at 2000 nM measured after 48 hrs by Annexin-FITC/propidium iodide staining based flow cytometry; assay type: functional, cell-based
[6] = Cytotoxicity against human L02 cells measured after 72 hrs
[7] = molecular target: Histone deacetylase 1 (Homo sapiens, UniProt Q13547); assay: Inhibition of HDAC1 (unknown origin)
Histone deacetylase 1, sequence (Q13547 whole entry): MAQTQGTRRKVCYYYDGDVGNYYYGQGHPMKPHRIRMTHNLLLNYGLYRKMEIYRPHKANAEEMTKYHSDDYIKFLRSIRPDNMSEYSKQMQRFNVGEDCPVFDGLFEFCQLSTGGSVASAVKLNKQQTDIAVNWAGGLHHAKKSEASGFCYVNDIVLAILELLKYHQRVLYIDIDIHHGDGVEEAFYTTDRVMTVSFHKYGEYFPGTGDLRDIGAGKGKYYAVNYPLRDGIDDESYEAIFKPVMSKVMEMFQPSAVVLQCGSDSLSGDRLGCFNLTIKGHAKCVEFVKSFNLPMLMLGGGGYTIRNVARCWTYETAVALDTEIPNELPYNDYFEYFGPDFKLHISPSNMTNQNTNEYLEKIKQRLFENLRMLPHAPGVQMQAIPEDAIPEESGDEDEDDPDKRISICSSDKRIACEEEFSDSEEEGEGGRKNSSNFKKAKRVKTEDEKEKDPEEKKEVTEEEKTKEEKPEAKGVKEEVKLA

[8] = molecular target: Histone deacetylase 3 (Homo sapiens, UniProt O15379); assay: Inhibition of HDAC3 (unknown origin)
Histone deacetylase 3, sequence (O15379 whole entry): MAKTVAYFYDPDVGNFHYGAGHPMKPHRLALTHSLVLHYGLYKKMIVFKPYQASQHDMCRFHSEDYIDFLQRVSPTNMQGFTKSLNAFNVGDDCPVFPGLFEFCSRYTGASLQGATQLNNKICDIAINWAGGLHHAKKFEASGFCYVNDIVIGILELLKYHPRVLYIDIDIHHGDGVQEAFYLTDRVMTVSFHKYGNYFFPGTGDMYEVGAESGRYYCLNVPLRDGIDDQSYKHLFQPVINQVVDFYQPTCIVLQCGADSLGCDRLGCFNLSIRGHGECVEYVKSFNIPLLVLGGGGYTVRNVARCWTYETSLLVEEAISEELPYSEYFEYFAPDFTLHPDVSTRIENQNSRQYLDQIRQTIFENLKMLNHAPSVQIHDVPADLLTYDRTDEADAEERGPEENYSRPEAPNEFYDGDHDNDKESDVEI

[9] = molecular target: T1, Histone deacetylase 8 (Homo sapiens, UniProt Q9BY41); assay: Inhibition of HDAC8 (unknown origin)
T1 sequence (Q9BY41 whole entry): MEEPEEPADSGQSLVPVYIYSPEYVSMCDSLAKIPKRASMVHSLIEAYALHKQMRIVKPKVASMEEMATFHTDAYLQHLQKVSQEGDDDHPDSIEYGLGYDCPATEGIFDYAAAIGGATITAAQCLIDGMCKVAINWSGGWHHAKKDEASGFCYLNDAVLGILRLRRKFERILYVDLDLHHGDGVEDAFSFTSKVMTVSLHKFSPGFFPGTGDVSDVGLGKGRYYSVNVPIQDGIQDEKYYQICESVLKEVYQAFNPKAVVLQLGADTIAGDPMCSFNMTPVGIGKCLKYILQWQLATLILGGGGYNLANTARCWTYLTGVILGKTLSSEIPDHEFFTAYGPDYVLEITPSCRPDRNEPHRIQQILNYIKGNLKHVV

[10] = molecular target: T2, Protein deacetylase HDAC6 (Homo sapiens, UniProt Q9UBN7); assay: Inhibition of HDAC6 (unknown origin)
T2 sequence (Q9UBN7 whole entry): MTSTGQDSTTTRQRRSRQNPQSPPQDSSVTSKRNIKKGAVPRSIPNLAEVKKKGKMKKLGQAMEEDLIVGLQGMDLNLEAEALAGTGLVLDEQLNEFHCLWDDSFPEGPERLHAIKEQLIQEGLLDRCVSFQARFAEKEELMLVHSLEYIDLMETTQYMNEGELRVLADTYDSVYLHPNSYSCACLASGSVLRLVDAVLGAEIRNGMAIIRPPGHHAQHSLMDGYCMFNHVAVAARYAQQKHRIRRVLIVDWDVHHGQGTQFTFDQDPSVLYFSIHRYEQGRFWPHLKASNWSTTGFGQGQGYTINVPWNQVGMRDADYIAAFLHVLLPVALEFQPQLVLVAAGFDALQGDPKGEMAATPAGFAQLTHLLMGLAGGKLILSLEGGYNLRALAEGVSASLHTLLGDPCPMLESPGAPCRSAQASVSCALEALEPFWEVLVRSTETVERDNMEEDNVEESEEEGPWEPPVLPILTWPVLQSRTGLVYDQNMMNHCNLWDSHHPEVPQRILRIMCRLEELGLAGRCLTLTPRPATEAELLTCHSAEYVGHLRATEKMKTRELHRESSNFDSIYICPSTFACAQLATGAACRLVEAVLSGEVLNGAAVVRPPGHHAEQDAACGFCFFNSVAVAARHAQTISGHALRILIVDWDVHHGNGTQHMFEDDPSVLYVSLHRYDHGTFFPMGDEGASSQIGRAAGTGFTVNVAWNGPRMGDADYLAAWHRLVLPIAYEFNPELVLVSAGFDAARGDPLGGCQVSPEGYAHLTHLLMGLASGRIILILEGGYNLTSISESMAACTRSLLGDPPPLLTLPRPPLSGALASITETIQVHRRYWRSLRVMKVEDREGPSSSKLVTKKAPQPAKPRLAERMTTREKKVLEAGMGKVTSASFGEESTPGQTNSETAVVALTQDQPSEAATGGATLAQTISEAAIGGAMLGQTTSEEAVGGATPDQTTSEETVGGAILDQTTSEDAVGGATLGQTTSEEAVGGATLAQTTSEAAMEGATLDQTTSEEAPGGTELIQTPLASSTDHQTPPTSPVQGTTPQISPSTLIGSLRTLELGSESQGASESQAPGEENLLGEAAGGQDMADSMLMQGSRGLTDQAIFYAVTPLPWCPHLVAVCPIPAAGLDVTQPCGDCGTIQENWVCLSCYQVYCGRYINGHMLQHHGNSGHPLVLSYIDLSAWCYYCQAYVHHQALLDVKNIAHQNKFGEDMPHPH

[11] = molecular target: Histone deacetylase 2 (Homo sapiens, UniProt Q92769); assay: Inhibition of HDAC2 (unknown origin)
Histone deacetylase 2, sequence (Q92769 whole entry): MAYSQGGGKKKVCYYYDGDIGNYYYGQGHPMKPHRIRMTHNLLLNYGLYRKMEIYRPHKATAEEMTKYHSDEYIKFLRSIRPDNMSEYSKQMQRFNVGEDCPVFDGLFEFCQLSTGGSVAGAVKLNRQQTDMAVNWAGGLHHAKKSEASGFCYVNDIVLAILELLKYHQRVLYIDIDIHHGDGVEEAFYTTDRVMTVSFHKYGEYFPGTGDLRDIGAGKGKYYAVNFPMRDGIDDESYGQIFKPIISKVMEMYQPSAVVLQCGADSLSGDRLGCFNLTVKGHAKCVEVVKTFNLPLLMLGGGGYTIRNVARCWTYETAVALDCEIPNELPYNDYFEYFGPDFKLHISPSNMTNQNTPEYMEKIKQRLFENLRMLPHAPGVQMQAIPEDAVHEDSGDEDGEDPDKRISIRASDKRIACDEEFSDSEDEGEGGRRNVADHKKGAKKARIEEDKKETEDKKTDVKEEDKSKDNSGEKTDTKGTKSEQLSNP

O=C(COc1ccc(CNCCc2c[nH]c3ccccc23)cc1)NO
IC50 [1]: 192 nM
IC50 [2]: 221 nM

Cc1ccc2[nH]cc(C3=CCC(NCc4ccc(OCC(=O)NO)cc4F)CC3)c2c1 (stereo not drawn)
IC50 [1]: 445 nM
IC50 [3]: 2780 nM

O=C(COc1ccc(C(=O)NC2CC=C(c3c[nH]c4cccc(F)c34)CC2)cc1)NO (stereo not drawn)
IC50 [1]: > 5000 nM
IC50 [3]: > 5000 nM

O=C(COc1ccc(CN2CC=C(c3c[nH]c4ccc(F)cc34)CC2)cc1)NO
IC50 [1]: 949 nM
IC50 [3]: 1110 nM

Cc1ccc2[nH]cc(C3=CCN(Cc4ccc(OCC(=O)NO)cc4)CC3)c2c1
IC50 [1]: 632 nM
IC50 [3]: 3960 nM

O=C(COc1ccc(C(=O)N2CC=C(c3c[nH]c4cccc(F)c34)CC2)cc1)NO
IC50 [1]: 1410 nM
IC50 [3]: 1490 nM

Cc1[nH]c2ccccc2c1C1=CCN(C(=O)c2ccc(OCC(=O)NO)cc2)CC1
IC50 [1]: > 5000 nM
IC50 [3]: > 5000 nM

Cc1[nH]c2ccccc2c1C1=CCC(NCc2ccc(OCC(=O)NO)cc2F)C(F)C1 (stereo not drawn)
IC50 [1]: 733 nM
IC50 [2]: 2310 nM
IC50 [4]: 501 nM
IC50 [3]: 509 nM

O=C(COc1ccc(CN2CC=C(c3c[nH]c4cccc(F)c34)CC2)cc1)NO
IC50 [1]: 969 nM
IC50 [3]: 2310 nM

COc1cc(OCC(=O)NO)ccc1CNCCn1cnc2ccccc21
IC50 [1]: > 10000 nM
IC50 [2]: > 10000 nM

O=C(CCCCCCC(=O)Nc1ccccc1)NO [VORINOSTAT]
Activity [5]: Active
IC50 [3]: 2120 nM

COc1cc(OCC(=O)NO)ccc1CNCCc1c[nH]c2ccccc12
IC50 [1]: > 10000 nM
IC50 [2]: > 10000 nM

O=C(COc1cccc(CNCCc2c[nH]c3ccccc23)c1)NO
IC50 [1]: 2610 nM
IC50 [2]: 2330 nM

Cc1ccc2[nH]cc(C3=CCN(Cc4ccc(OCC(=O)NO)cc4F)CC3)c2c1
IC50 [1]: 1450 nM
IC50 [3]: 1950 nM

O=C(COc1ccc(CNCCc2c[nH]c3ccccc23)c(F)c1)NO
IC50 at 72 h [6]: 1560 nM
IC50 [7]: 2.1 nM
IC50 [8]: 6.3 nM
IC50 [9]: 90 nM
IC50 [1]: 46 nM
IC50 [10]: 14 nM
IC50 [2]: 77 nM
IC50 [11]: 3.1 nM
